Measurements as given in patent publication US20110039763A1, “TARGETED ANTIMICROBIAL MOIETIES” (C3 JIAN, INC., priority 2009, published 2011).
Ends that are not written are not given here.

Tests used:
microorganisms [1] = experiment: Morphology, biofilm and growth disrupting peptides (Table 5); assay type: cell-based; parameters: key: A: Peptide aggregates; B: Less hyphal formation; Clumps; Diffuse clumps and small polyps; F: Diffuse growth; H: Thin; I: Growth inhibition; Microcolony formation; Rippled; Small polyps; Thick; W: Halo formation on top, microlonies on bottom
From the text: In certain embodiments peptides that induce alterations in phenotype or other biological activities can also be used as antimicrobial effector moieties.

microorganisms [2] = experiment: Peptide activities: targeting/binding, antimicrobial, growth or phenotype altering (Tables 7, 8); assay type: cell-based; conditions: peptides having multiple activities

PF-474: peptide having multiple activities (MHRNLVLVKMEPIPHIMIIANQIGIIIEKA; Peptide with targeting and/or antimicrobial activity)
Organism, effect (microorganisms [1]; C. albicans): C. albicans (B)
Organism, effect (microorganisms [1]; C. jejuni): C. jejuni (D)
Organism, effect (microorganisms [1]; E. coli): E. coli (C)
Organism, effect (microorganisms [1]; E. faecalis): E. faecalis (C)
Organism, effect (microorganisms [1]; MRSA): MRSA (D)
Organism, effect (microorganisms [1]; P. aeruginosa): P. aeruginosa (A)
Organism, effect (microorganisms [1]; S. epidermidis): S. epidermidis (C)
Organism, effect (microorganisms [1]; S. pneumoniae): S. pneumoniae (D)
Activities (microorganisms [2]): G B

ALCSVIKAIELGIINVHLQ [PF-366]
Organism, effect: C. jejuni (microorganisms [1]; C. jejuni): C. jejuni (D)
Organism, effect: E. coli (microorganisms [1]; E. coli): E. coli (C)
Organism, effect: E. faecalis (microorganisms [1]; E. faecalis): E. faecalis (C)
Organism, effect: MRSA (microorganisms [1]; MRSA): MRSA (D)
Organism, effect: P. aeruginosa (microorganisms [1]; P. aeruginosa): P. aeruginosa (A)
Organism, effect: S. epidermidis (microorganisms [1]; S. epidermidis): S. epidermidis (R)
Organism, effect: S. pneumoniae (microorganisms [1]; S. pneumoniae): S. pneumoniae (C)
Activities (microorganisms [2]): G B

PF-411: peptide having multiple activities (chain 1 WVAVAILLNIALQTQLT; chain 2 WVAVAILLNIALQTQLT; Peptide with targeting and/or antimicrobial activity)
Organism, effect: C. jejuni (microorganisms [1]; C. jejuni): C. jejuni (D)
Organism, effect: E. coli (microorganisms [1]; E. coli): E. coli (C)
Organism, effect: E. faecalis (microorganisms [1]; E. faecalis): E. faecalis (D)
Organism, effect: MRSA (microorganisms [1]; MRSA): MRSA (D)
Organism, effect: P. aeruginosa (microorganisms [1]; P. aeruginosa): P. aeruginosa (A)
Organism, effect: S. epidermidis (microorganisms [1]; S. epidermidis): S. epidermidis (C)
Organism, effect: S. pneumoniae (microorganisms [1]; S. pneumoniae): S. pneumoniae (D)
Activities (microorganisms [2]): G B

PF-526: peptide having multiple activities (VLLLFIFQPFQKQLL-NH2)
Organism, effect (microorganisms [1]; C. albicans): C. albicans (C)
Organism, effect (microorganisms [1]; E. coli): E. coli (R)
Organism, effect (microorganisms [1]; MRSA): MRSA (C)
Organism, effect (microorganisms [1]; S. epidermidis): S. epidermidis (C)
Organism, effect (microorganisms [1]; S. pneumoniae): S. pneumoniae (R)
Activities (microorganisms [2]): G B

PF-469: peptide having multiple activities (YKVNYNNIDNHFNTLRH; Peptide with targeting and/or antimicrobial activity)
Organism, effect (microorganisms [1]; C. jejuni): C. jejuni (D)
Organism, effect (microorganisms [1]; E. coli): E. coli (C)
Organism, effect (microorganisms [1]; E. faecalis): E. faecalis (D)
Organism, effect (microorganisms [1]; MRSA): MRSA (D)
Organism, effect (microorganisms [1]; S. epidermidis): S. epidermidis (D)
Organism, effect (microorganisms [1]; S. pneumoniae): S. pneumoniae (D)
Activities (microorganisms [2]): G B

PF-376: peptide having multiple activities (chain 1 MTVFEALMLAIAFATLIVKISNKNDKK; chain 2 MTVFEALMLAIAFATLIVKISNKNDKK; Peptide with targeting and/or antimicrobial activity)
Organism, effect: E. coli (microorganisms [1]; E. coli): E. coli (C)
Organism, effect: E. faecalis (microorganisms [1]; E. faecalis): E. faecalis (C)
Organism, effect: MRSA (microorganisms [1]; MRSA): MRSA (C)
Organism, effect: S. epidermidis (microorganisms [1]; S. epidermidis): S. epidermidis (C)
Activities (microorganisms [2]): G B

PF-615: peptide having multiple activities (chain 1 FLNRFIFYIFTVKTKSALIKNLFLD; chain 2 FLNRFIFYIFTVKTKSALIKNLFLD; Peptide with targeting and/or antimicrobial activity)
Organism, effect (microorganisms [1]; C. jejuni): C. jejuni (D)
Organism, effect (microorganisms [1]; E. coli): E. coli (C)
Organism, effect (microorganisms [1]; E. faecalis): E. faecalis (D)
Organism, effect (microorganisms [1]; MRSA): MRSA (D)
Organism, effect (microorganisms [1]; S. epidermidis): S. epidermidis (D)
Organism, effect (microorganisms [1]; S. pneumoniae): S. pneumoniae (D)
Activities (microorganisms [2]): G B

PF-001: peptide having multiple activities (MNNWIIVAQLSVTVINEIIDIMKEKQKGGK; Peptide with targeting and/or antimicrobial activity)
Organism, effect: C. jeikeium (microorganisms [1]; C. jeikeium): C. jeikeium (D)
Organism, effect: M. luteus (microorganisms [1]; M. luteus): M. luteus (C)
Organism, effect: MRSA (microorganisms [1]; MRSA): MRSA (R)
Organism, effect: S. epidermidis (microorganisms [1]; S. epidermidis): S. epidermidis (C)
Activities (microorganisms [2]): G B

PF-458: peptide having multiple activities (ISLIIFIMLFVVALFKCITNYKHQS; Peptide with targeting and/or antimicrobial activity)
Organism, effect (microorganisms [1]; MRSA): MRSA (M)
Organism, effect (microorganisms [1]; P. aeruginosa): P. aeruginosa (H)
Organism, effect (microorganisms [1]; S. pneumoniae): S. pneumoniae (M)
Activities (microorganisms [2]): G B
